{"source": "patent US20250304620A1", "about": "“ANTIMICROBIAL PEPTIDE AND APPLICATION THEREOF” (priority 2023, published 2025)", "key": {"[1]": {"tested_on": "Klebsiella pneumoniae ATCC 700603", "type": "cell-based", "how_it_was_run": "(§1)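 Following CLSI standards, peptides are serially diluted twofold in a microdilution setup against each strain. The MIC is then recorded. The whole experiment is run five times in parallel.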"}, "[2]": {"tested_on": "Serratia marcescens ATCC 29021", "type": "cell-based", "how_it_was_run": "as §1"}, "[3]": {"tested_on": "Candida albicans ATCC MYA-2876", "type": "cell-based", "how_it_was_run": "as §1"}, "[4]": {"tested_on": "Staphylococcus aureus ATCC 25923", "type": "cell-based", "how_it_was_run": "as §1"}, "[5]": {"tested_on": "Pseudomonas aeruginosa ATCC 27853", "type": "cell-based", "how_it_was_run": "as §1"}, "[6]": {"tested_on": "Salmonella typhimurium ATCC 14028", "type": "cell-based", "how_it_was_run": "as §1"}, "Candida krusei ATCC 6258": {"tested_on": "Candida krusei ATCC 6258", "type": "cell-based", "how_it_was_run": "as §1"}, "Candida utilis ATCC 9950": {"tested_on": "Candida utilis ATCC 9950", "type": "cell-based", "how_it_was_run": "as §1"}, "[7]": {"tested_on": "Corynebacterium ATCC 7715", "type": "cell-based", "how_it_was_run": "as §1"}, "[8]": {"tested_on": "Candida glabrata ATCC 15126", "type": "cell-based", "how_it_was_run": "as §1"}, "[9]": {"tested_on": "Bacillus subtilis ATCC 6633", "type": "cell-based", "how_it_was_run": "as §1"}, "[10]": {"test": "Serum stability assay (residual level by RP-HPLC)", "settings": "human"}, "[11]": {"tested_on": "Shigella flexneri ATCC 12022", "test": "MIC against clinically common bacterial strain", "type": "cell-based", "how_it_was_run": "as §1"}, "[12]": {"tested_on": "vancomycin-resistant Enterococcus (VRE)", "type": "cell-based", "how_it_was_run": "(§2)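 Broth serial twofold dilution per CLSI standards, run 5 times in parallel, gave MIC values for the peptides against clinically common resistant strains.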"}, "[13]": {"tested_on": "Methicillin-resistant Staphylococcus aureus (MRSA)", "type": "cell-based", "settings": "Methicillin-resistant", "how_it_was_run": "as §2"}, "[14]": {"tested_on": "carbapenem-resistant Pseudomonas aeruginosa (CRPA)", "type": "cell-based", "settings": "carbapenem-resistant (CRPA)", "how_it_was_run": "as §2"}, "[15]": {"tested_on": "carbapenem-resistant Escherichia coli (CREC)", "type": "cell-based", "settings": "carbapenem-resistant (CREC)", "how_it_was_run": "as §2"}, "[16]": {"tested_on": "carbapenem-resistant Klebsiella pneumoniae (CRKP)", "type": "cell-based", "settings": "carbapenem-resistant (CRKP)", "how_it_was_run": "as §2"}, "rabbit red blood cells": {"tested_on": "rabbit red blood cells", "type": "cell-based", "settings": "red cells of rabbit, 1 h"}, "[17]": {"tested_on": "Pseudomonas aeruginosa ATCC 27853", "test": "Injectable formulations on mice infected with peritonitis", "type": "in vivo, ICR mice", "settings": "1 mg/kg via tail vein, twice a day for 3 days, n = 10; for Average survival times (Days): observed for 14 d", "how_it_was_run": "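Survival readout: deaths and survival time tracked for 14 d. Treatment was tail-vein injection by body weight, twice a day for 3 consecutive days, starting right after intraperitoneal challenge with 0.2 mL of 1×10^9 CFU/mL P. aeruginosa ATCC 27853 in male and female ICR mice.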"}}, "note": "Marks after values point to notes of the source that are not given here. Non-standard residues stand in square brackets, D forms with d. Residues, ends and D or L forms follow the SMILES beside them. d2Nal = N[C@H](Cc1ccc2ccccc2c1)C(=O)O; d(hLeu) = CC(C)CC[C@@H](N)C(=O)O", "data": [{"smiles": "CC(=O)N[C@H](CCCNC(=N)N)C(=O)N[C@H](CCCCN)C(=O)N[C@H](CCC(C)C)C(=O)N[C@H](CCC(C)C)C(=O)N[C@H](Cc1ccc2ccccc2c1)C(=O)N[C@H](CCCNC(=N)N)C(=O)N[C@H](CCC(C)C)C(=O)N[C@H](CCCCN)C(=O)N[C@H](Cc1ccc2ccccc2c1)C(=O)N[C@H](CCCNC(=N)N)C(=O)N[C@H](CCCCN)C(N)=O", "note": "[LV-14] (Ac-[dR][dK][d(hLeu)][d(hLeu)][d2Nal][dR][d(hLeu)][dK][d2Nal][dR][dK]-NH2)", "values": [{"measurement": "MIC Klebsiella pneumoniae ATCC 700603", "setting": "[1]", "value": 4, "unit": "µg/mL"}, {"measurement": "MIC Serratia marcescens ATCC 29021", "setting": "[2]", "value": 8, "unit": "µg/mL"}, {"measurement": "MIC Candida albicans ATCC MYA-2876", "setting": "[3]", "value": 16, "unit": "µg/mL"}, {"measurement": "MIC Staphylococcus aureus ATCC 25923", "setting": "[4]", "value": 2, "unit": "µg/mL"}, {"measurement": "MIC Pseudomonas aeruginosa ATCC 27853", "setting": "[5]", "value": 4, "unit": "µg/mL"}, {"measurement": "MIC Salmonella typhimurium ATCC 14028", "setting": "[6]", "value": 4, "unit": "µg/mL"}, {"measurement": "MIC Candida krusei ATCC 6258", "setting": "Candida krusei ATCC 6258", "value": 16, "unit": "µg/mL"}, {"measurement": "MIC Candida utilis ATCC 9950", "setting": "Candida utilis ATCC 9950", "value": 4, "unit": "µg/mL"}, {"measurement": "MIC Corynebacterium ATCC 7715", "setting": "[7]", "value": 8, "unit": "µg/mL"}, {"measurement": "MIC Candida glabrata ATCC 15126", "setting": "[8]", "value": 4, "unit": "µg/mL"}, {"measurement": "MIC Bacillus subtilis ATCC 6633", "setting": "[9]", "value": 2, "unit": "µg/mL"}, {"measurement": "remaining at 12 h, 0.91 mg/mL", "setting": "[10]", "value": 97.1, "unit": "%"}, {"measurement": "MIC Shigella flexneri ATCC 12022", "setting": "[11]", "value": 4, "unit": "µg/mL"}, {"measurement": "MIC VRE", "setting": "[12]", "value": 4, "unit": "µg/mL"}, {"measurement": "MIC MRSA", "setting": "[13]", "value": 4, "unit": "µg/mL"}, {"measurement": "MIC CRPA", "setting": "[14]", "value": 8, "unit": "µg/mL"}, {"measurement": "MIC CREC", "setting": "[15]", "value": 8, "unit": "µg/mL"}, {"measurement": "MIC CRKP", "setting": "[16]", "value": 4, "unit": "µg/mL"}, {"measurement": "MHC (minimum hemolytic concentration, lowest concentration causing 10% hemolysis)", "setting": "rabbit red blood cells", "value": ">1000", "unit": "µg/mL"}, {"measurement": "Number of mice that died on each day after infection: day 1", "setting": "[17]", "value": 1, "unit": "Mouse"}, {"measurement": "Number of mice that died on each day after infection: day 2", "setting": "[17]", "value": 2, "unit": "Mouse"}, {"measurement": "Number of mice that died on each day after infection: day 3", "setting": "[17]", "value": 0, "unit": "Mouse"}, {"measurement": "Number of mice that died on each day after infection: day 4", "setting": "[17]", "value": 1, "unit": "Mouse"}, {"measurement": "Number of mice that died on each day after infection: day 5", "setting": "[17]", "value": 1, "unit": "Mouse"}, {"measurement": "Average survival times (Days)", "setting": "[17]", "value": "8.4** Days"}]}, {"smiles": "CC(=O)N[C@H](CCCNC(=N)N)C(=O)N[C@H](CCCCN)C(=O)N[C@H](C)C(=O)N[C@H](C)C(=O)N[C@H](Cc1ccc2ccccc2c1)C(=O)N[C@H](CCCNC(=N)N)C(=O)N[C@H](C)C(=O)N[C@H](CCCCN)C(=O)N[C@H](Cc1ccc2ccccc2c1)C(=O)N[C@H](CCCNC(=N)N)C(=O)N[C@H](CCCCN)C(N)=O", "note": "[LV-15] (Ac-[dR][dK][dA][dA][d2Nal][dR][dA][dK][d2Nal][dR][dK]-NH2)", "values": [{"measurement": "MIC Klebsiella pneumoniae ATCC 700603", "setting": "[1]", "value": 4, "unit": "µg/mL"}, {"measurement": "MIC Serratia marcescens ATCC 29021", "setting": "[2]", "value": 8, "unit": "µg/mL"}, {"measurement": "MIC Candida albicans ATCC MYA-2876", "setting": "[3]", "value": 8, "unit": "µg/mL"}, {"measurement": "MIC Staphylococcus aureus ATCC 25923", "setting": "[4]", "value": 2, "unit": "µg/mL"}, {"measurement": "MIC Pseudomonas aeruginosa ATCC 27853", "setting": "[5]", "value": 4, "unit": "µg/mL"}, {"measurement": "MIC Salmonella typhimurium ATCC 14028", "setting": "[6]", "value": 2, "unit": "µg/mL"}, {"measurement": "MIC Candida krusei ATCC 6258", "setting": "Candida krusei ATCC 6258", "value": 4, "unit": "µg/mL"}, {"measurement": "MIC Candida utilis ATCC 9950", "setting": "Candida utilis ATCC 9950", "value": 8, "unit": "µg/mL"}, {"measurement": "MIC Corynebacterium ATCC 7715", "setting": "[7]", "value": 8, "unit": "µg/mL"}, {"measurement": "MIC Candida glabrata ATCC 15126", "setting": "[8]", "value": 4, "unit": "µg/mL"}, {"measurement": "MIC Bacillus subtilis ATCC 6633", "setting": "[9]", "value": 4, "unit": "µg/mL"}, {"measurement": "remaining at 12 h, 0.91 mg/mL", "setting": "[10]", "value": 97.3, "unit": "%"}, {"measurement": "MIC Shigella flexneri ATCC 12022", "setting": "[11]", "value": 2, "unit": "µg/mL"}, {"measurement": "MIC VRE", "setting": "[12]", "value": 8, "unit": "µg/mL"}, {"measurement": "MIC MRSA", "setting": "[13]", "value": 4, "unit": "µg/mL"}, {"measurement": "MIC CRPA", "setting": "[14]", "value": 8, "unit": "µg/mL"}, {"measurement": "MIC CREC", "setting": "[15]", "value": 4, "unit": "µg/mL"}, {"measurement": "MIC CRKP", "setting": "[16]", "value": 8, "unit": "µg/mL"}, {"measurement": "MHC (minimum hemolytic concentration, lowest concentration causing 10% hemolysis)", "setting": "rabbit red blood cells", "value": ">1000", "unit": "µg/mL"}, {"measurement": "Number of mice that died on each day after infection: day 1", "setting": "[17]", "value": 1, "unit": "Mouse"}, {"measurement": "Number of mice that died on each day after infection: day 2", "setting": "[17]", "value": 2, "unit": "Mouse"}, {"measurement": "Number of mice that died on each day after infection: day 3", "setting": "[17]", "value": 0, "unit": "Mouse"}, {"measurement": "Number of mice that died on each day after infection: day 4", "setting": "[17]", "value": 2, "unit": "Mouse"}, {"measurement": "Number of mice that died on each day after infection: day 5", "setting": "[17]", "value": 0, "unit": "Mouse"}, {"measurement": "Average survival times (Days)", "setting": "[17]", "value": "8.3** Days"}]}]}
